According to patent US12202818B2, “Compounds and methods for CD73 modulation and indications therefor” (Opna Bio SA, priority 2020, dated 2025):

Columns and labels:
[1] = target: T1, Human CD73 (amino acid residues 27-549) (Homo sapiens, UniProt P21589); test: CD73 enzymatic assay (luciferase-based indirect assay, CellTiter-Glo); format: biochemical; details: 0.4 nM CD73, 150 μM AMP, 1 hour at room temperature
T1 construct: Human CD73 (amino acid residues 27-549); His tag (N); made in house; host or cells: E. coli
T1 sequence (P21589 27-549): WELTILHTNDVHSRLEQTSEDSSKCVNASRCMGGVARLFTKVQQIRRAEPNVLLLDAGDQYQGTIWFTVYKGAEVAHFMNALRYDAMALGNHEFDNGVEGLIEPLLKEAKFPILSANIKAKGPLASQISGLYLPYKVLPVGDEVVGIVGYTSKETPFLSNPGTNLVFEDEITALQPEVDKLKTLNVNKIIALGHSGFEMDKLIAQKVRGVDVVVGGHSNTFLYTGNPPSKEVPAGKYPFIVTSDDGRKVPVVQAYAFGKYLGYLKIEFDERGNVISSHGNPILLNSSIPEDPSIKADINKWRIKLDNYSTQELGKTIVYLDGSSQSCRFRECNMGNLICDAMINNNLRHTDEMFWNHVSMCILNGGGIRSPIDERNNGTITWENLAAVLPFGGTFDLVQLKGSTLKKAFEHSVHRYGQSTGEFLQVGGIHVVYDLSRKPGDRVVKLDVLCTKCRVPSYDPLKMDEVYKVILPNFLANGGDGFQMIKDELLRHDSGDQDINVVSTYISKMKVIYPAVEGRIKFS
How it was run: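 N-His human CD73 (27-549) expressed in E. coli, 0.4 nM, incubated with 150 μM AMP and compound in 50 mM HEPES pH 7.4, 0.01% Tween-20, 1 h at RT. Remaining AMP read via CellTiter-Glo luminescence with 1 μM ATP after 30 min; IC50 from nonlinear regression of % inhibition.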

[2] = target: T2, human CD73 (Homo sapiens, UniProt P21589); test: Inhibitor activity against CD73 in cell based assay (CD73 expressing CHO-K1 cells); details: CHO-K1 cells expressing human CD73, 150 μM AMP, 4 hours of incubation; read-out: CHO-K1 CELL_VARIANT: CD73 IC50
T2 construct: expressed in transfected cells
T2 sequence (P21589 27-549): T1 sequence (P21589 27-549)
How it was run: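 Stable human CD73 CHO-K1 cells, 1×10^4/well, exposed to an 8-point 1:3 compound series (top 10 μM, 0.2% DMSO) plus 150 μM AMP for 4 h. Remaining AMP in the supernatant was read by CellTiter-Glo 2.0 luminescence with 1 μM ATP after 30 min at room temperature. IC50 came from nonlinear regression of % inhibition against cell and media-only controls.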

Structure (SMILES)	IC50 [1]	IC50 [2]
O=c1[nH]ncc(N2CC[C@@H](Oc3cc(-c4ccc(S(=O)(=O)NC5CC5)cc4Cl)ccn3)C2)c1Cl [P-0230, (R)-3-chloro-4-(2-((1-(5-chloro-6-oxo-1,6-dihydropyridazin-4-yl)pyrrolidin-3-yl)oxy)pyridin-4-yl)-N-cyclopropylbenzenesulfonamide]	0.001 to 10 µM	0.001 to 10 µM
O=c1[nH]ncc(N2CC[C@@H](Oc3cc(-c4ccc(NS(=O)(=O)C5CC5)cc4)ccn3)C2)c1Cl [P-0245, (R)-N-(4-(2-((1-(5-chloro-6-oxo-1,6-dihydropyridazin-4-yl)pyrrolidin-3-yl)oxy)pyridin-4-yl)phenyl)cyclopropanesulfon-amide]	0.001 to 10 µM	0.001 to 10 µM
Cc1nn(C(C)C)c(C)c1-c1ccnc(O[C@@H]2CCN(c3cn[nH]c(=O)c3Cl)C2)c1 [P-0027, (R)-4-chloro-5-(3-((4-(1-isopropyl-3,5-dimethyl-1H-pyrazol-4-yl)pyridin-2-yl)oxy)pyrrolidin-1-yl)pyridazin-3(2H)-one]	0.001 to 10 µM	0.001 to 10 µM
Cc1noc(C)c1-c1ccnc(O[C@H]2CN(c3cnn(CCO)c(=O)c3Cl)C[C@@H]2F)c1 [P-0177, 4-chloro-5-((3S,4S)-3-((4-(3,5-dimethylisoxazol-4-yl)pyridin-2-yl)oxy)-4-fluoropyrrolidin-1-yl)-2-(2-hydroxyethyl)pyridazin-3(2H)-one]	0.001 to 10 µM	0.001 to 10 µM
Cc1nn(CC(C)(C)O)c(C)c1-c1ccnc(O[C@@H]2CCN(c3cn[nH]c(=O)c3Cl)C2)c1 [P-0038, (R)-4-chloro-5-(3-((4-(1-(2-hydroxy-2-methylpropyl)-3,5-dimethyl-1H-pyrazol-4-yl)pyridin-2-yl)oxy)pyrrolidin-1-yl)pyridazin-3(2H)-one]	0.001 to 10 µM	0.001 to 10 µM
O=c1[nH]ncc(N2CC[C@@H](Oc3cc(-c4ccc(S(=O)(=O)N5CCCC5)cc4)c(Cl)cn3)C2)c1Cl [P-0248, (R)-4-chloro-5-(3-((5-chloro-4-(4-(pyrrolidin-1-ylsulfonyl)phenyl)pyridin-2-yl)oxy)pyrrolidin-1-yl)pyridazin-3(2H)-one]	0.001 to 10 µM	0.001 to 10 µM
Nc1ccc(-c2ccnc(O[C@@H]3CCN(c4cn[nH]c(=O)c4Cl)C3)c2)c(F)c1 [P-0220, (R)-5-(3-((4-(4-amino-2-fluorophenyl)pyridin-2-yl)oxy)pyrrolidin-1-yl)-4-chloropyridazin-3(2H)-one]	0.001 to 10 µM	0.001 to 10 µM
Cc1noc(C)c1-c1cc(O[C@@H]2CCN(c3cnn(CCCO)c(=O)c3Cl)C2)ncn1 [P-0139, (R)-4-chloro-5-(3-((6-(3,5-dimethylisoxazol-4-yl)pyrimidin-4-yl)oxy)pyrrolidin-1-yl)-2-(3-hydroxypropyl)pyridazin-3(2H)-one]	0.001 to 10 µM	0.001 to 10 µM
CCCn1nc(C)c(-c2cc(F)nc(O[C@@H]3CCN(c4cn[nH]c(=O)c4Cl)C3)c2)c1C [P-0165, (R)-4-chloro-5-(3-((4-(3,5-dimethyl-1-propyl-1H-pyrazol-4-yl)-6-fluoropyridin-2-yl)oxy)pyrrolidin-1-yl)pyridazin-3(2H)-one]	0.001 to 10 µM	0.001 to 10 µM
CCCCNS(=O)(=O)c1ccc(-c2ccnc(O[C@@H]3CCN(c4cn[nH]c(=O)c4Cl)C3)c2)cc1 [P-0242, (R)-N-butyl-4-(2-((1-(5-chloro-6-oxo-1,6-dihydropyridazin-4-yl)pyrrolidin-3-yl)oxy)pyridin-4-yl)benzenesulfonamide]	0.001 to 10 µM	0.001 to 10 µM
O=c1[nH]ncc(N2CC[C@@H](Oc3cc(-c4ccc(S(=O)(=O)Nc5ccc(F)cc5)cc4)ccn3)C2)c1Cl [P-0241, (R)-4-(2-((1-(5-chloro-6-oxo-1,6-dihydropyridazin-4-yl)pyrrolidin-3-yl)oxy)pyridin-4-yl)-N-(4-fluorophenyl)benzenesulfon-amide]	0.001 to 10 µM	0.001 to 10 µM
Cc1noc(C)c1-c1cc(O[C@H]2CN(c3cn[nH]c(=O)c3Cl)C[C@@H]2F)ncc1F [P-0134, 4-chloro-5-((3S,4S)-3-((4-(3,5-dimethylisoxazol-4-yl)-5-fluoropyridin-2-yl)oxy)-4-fluoropyrrolidin-1-yl)pyridazin-3(2H)-one]	0.001 to 10 µM	0.001 to 10 µM
COc1ccc2c(c1)cc(-c1ccnc(O[C@@H]3CCN(c4cn[nH]c(=O)c4Cl)C3)c1)n2C [P-0108, (R)-4-chloro-5-(3-((4-(5-methoxy-1-methyl-1H-indol-2-yl)pyridin-2-yl)oxy)pyrrolidin-1-yl)pyridazin-3(2H)-one]	0.001 to 10 µM	0.001 to 10 µM
COc1ccc2c(c1)cc(-c1ccnc(O[C@@H]3CCN(c4cnn(CCO)c(=O)c4Cl)C3)c1)n2C [P-0106, (R)-4-chloro-2-(2-hydroxyethyl)-5-(3-((4-(5-methoxy-1-methyl-1H-indol-2-yl)pyridin-2-yl)oxy)pyrrolidin-1-yl)pyridazin-3(2H)-one]	0.001 to 10 µM	0.001 to 10 µM
O=c1[nH]ncc(N2CC[C@@H](Oc3cc(-c4ccc(S(=O)(=O)NC5CC5)cc4)ccn3)C2)c1Cl [P-0247, (R)-4-(2-((1-(5-chloro-6-oxo-1,6-dihydropyridazin-4-yl)pyrrolidin-3-yl)oxy)pyridin-4-yl)-N-cyclopropylbenzenesulfonamide]	0.001 to 10 µM	0.001 to 10 µM

The remaining lines, values ahead:

IC50 [1]	IC50 [2]	Structure (SMILES)
0.001 to 10 µM	0.001 to 10 µM	O=c1[nH]ncc(N2CC[C@@H](Oc3cc(C4CCNC4)ccn3)C2)c1Cl (stereo partly drawn) [P-0018, 4-chloro-5-((3R)-3-((4-(pyrrolidin-3-yl)pyridin-2-yl)oxy)pyrrolidin-1-yl)pyridazin-3(2H)-one]
0.001 to 10 µM	0.001 to 10 µM	O=C(NC1CCOCC1)c1ccnc(O[C@@H]2CCN(c3cn[nH]c(=O)c3Cl)C2)c1 [P-0025, (R)-2-((1-(5-chloro-6-oxo-1,6-dihydropyridazin-4-yl)pyrrolidin-3-yl)oxy)-N-(tetrahydro-2H-pyran-4-yl)isonicotinamide]
0.001 to 10 µM	0.001 to 10 µM	O=c1[nH]ncc(N2CC[C@@H](Oc3cc(N4CCC5(CC4)COC5)ccn3)C2)c1Cl [P-0082, (R)-5-(3-((4-(2-oxa-7-azaspiro[3.5]nonan-7-yl)pyridin-2-yl)oxy)pyrrolidin-1-yl)-4-chloropyridazin-3(2H)-one]
0.001 to 10 µM	0.001 to 10 µM	O=c1[nH]ncc(N2CC[C@@H](Oc3cc(C4CCC(O)CC4)ccn3)C2)c1Cl (stereo partly drawn) [P-0031, (R)-4-chloro-5-(3-((4-(4-hydroxycyclohexyl)pyridin-2-yl)oxy)pyrrolidin-1-yl)pyridazin-3(2H)-one]
0.001 to 10 µM	0.001 to 10 µM	O=c1[nH]ncc(N2CC[C@@H](Oc3cc(C4CC5CCC(C4)N5)ccn3)C2)c1Cl (stereo partly drawn) [P-0012, 5-((3R)-3-((4-(8-azabicyclo[3.2.1]octan-3-yl)pyridin-2-yl)oxy)pyrrolidin-1-yl)-4-chloropyridazin-3(2H)-one]
0.001 to 10 µM	0.001 to 10 µM	O=c1[nH]ncc(N2CC[C@@H](Oc3cc(-c4cnn(C5CCNCC5)c4)ccn3)C2)c1Cl [P-0002, (R)-4-chloro-5-(3-((4-(1-(piperidin-4-yl)-1H-pyrazol-4-yl)pyridin-2-yl)oxy)pyrrolidin-1-yl)pyridazin-3(2H)-one]
0.001 to 10 µM	0.001 to 10 µM	CC1(CN2CCC(c3ccnc(O[C@@H]4CCN(c5cn[nH]c(=O)c5Cl)C4)c3)CC2)COC1 [P-0005, (R)-4-chloro-5-(3-((4-(1-((3-methyloxetan-3-yl)methyl)piperidin-4-yl)pyridin-2-yl)oxy)pyrrolidin-1-yl)pyridazin-3(2H)-one]
